Data: patent US20260124170A1, “PHARMACEUTICAL COMPOSITION COMPRISING METABOLITE OF ENAVOGLIFLOZIN, AND USE THEREOF” (DAEWOONG PHARMACEUTICAL CO., LTD., priority 2022, published 2026)
Values joined by “and” are separate entries in the source; they are usually repeats but may differ in a detail not shown here. Equal entries are not always repeated. “Also recorded” adds a separate entry of the source. Marks after values point to notes of the source that are not given here.

What was measured:
interleukin-6 (IL-6) = test: Serum IL-6 ELISA in type 1 diabetic rat model; assay type: in vivo; conditions: STZ rats, 6, 24, 48, 72 hours after administration
Procedure: (§1) STZ was administered to Sprague Dawley (SD) male 5-week-old rats on day 0 (G2 to G7, excluding G1), and non-fasting blood glucose levels were measured on day 3 to determine whether type 1 diabetes was induced. On day 7, the experimental substances were administered to each group, and blood and urine samples were collected at 6 h, 24 h, 48 h, and 72 h to measure non-fasting blood glucose levels. On day 14 of the experiment, the experimental animals were fasted for 16 h, and on day 15, 2 g/kg of glucose solution was orally administered after the experimental substances were administered. Thereafter, blood glucose levels were measured at 15, 30, 60, 90, and 120 minutes after glucose administration. After blood collection, the serum was separated, and the IL-6 inflammatory response was evaluated using an interleukin-6 (IL-6) enzyme-linked immunosorbent assay (ELISA) kit.

SGLT2 = biological target: T1, SGLT2 (Homo sapiens, UniProt P31639); test: Whole-cell patch clamp glucose current, binding and dissociation, CHO-SGLT2; assay type: cell-based; conditions: for Dissociation degree T1/2, off (s), SGLT2: washout
T1 construct: expressed in transfected cells
T1 sequence (P31639 1-672): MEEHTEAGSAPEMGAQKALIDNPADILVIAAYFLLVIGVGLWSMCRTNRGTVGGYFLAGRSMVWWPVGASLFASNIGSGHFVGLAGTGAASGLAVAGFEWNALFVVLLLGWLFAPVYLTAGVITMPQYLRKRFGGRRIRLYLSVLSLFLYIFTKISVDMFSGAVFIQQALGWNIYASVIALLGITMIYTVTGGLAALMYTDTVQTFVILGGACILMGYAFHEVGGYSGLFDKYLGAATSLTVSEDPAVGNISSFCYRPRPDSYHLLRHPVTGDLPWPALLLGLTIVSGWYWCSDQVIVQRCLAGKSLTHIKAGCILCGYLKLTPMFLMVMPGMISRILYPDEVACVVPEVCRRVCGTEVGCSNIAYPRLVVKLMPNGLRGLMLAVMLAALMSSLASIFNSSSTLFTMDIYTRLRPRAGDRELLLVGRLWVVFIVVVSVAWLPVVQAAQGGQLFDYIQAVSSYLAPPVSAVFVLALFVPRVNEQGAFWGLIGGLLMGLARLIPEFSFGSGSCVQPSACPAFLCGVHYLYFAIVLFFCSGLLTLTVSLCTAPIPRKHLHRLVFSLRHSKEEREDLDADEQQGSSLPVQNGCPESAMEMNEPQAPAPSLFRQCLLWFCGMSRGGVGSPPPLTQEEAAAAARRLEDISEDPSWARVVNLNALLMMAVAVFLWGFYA
Procedure: When SGLT1- and SGLT2-overexpressing cell lines (CHO-SGLT1, CHO-SGLT2 stable cells) were cultured to reach 60% confluency, the cells were treated with 0.05% trypsin to detach the cells from the bottom of the plate, suspended in 200 μL of culture medium, and used at room temperature.
Glucose reabsorption is induced by the Na^+ electrochemical potential gradient in the kidneys via SGLT2, and glucose diffuses across the cell membrane into the blood via glucose transporter 2 (GLUT-2), which enables facilitated glucose transport. While one Na^+ ion is absorbed per glucose molecule through SGLT2, two Nations are absorbed per glucose molecule through SGLT1. Therefore, by varying the composition of the buffer, only the glucose current was recorded, excluding the Na^+ current.
The experiment was conducted as described below.
1) Using a Narishige puller, a glass micropipette was made in two stages of 62.7° C. and 57° C., filled with an internal solution (145 mM CsCl, 5 mM NaCl, 10 mM HEPES, 11 mM ethylene glycol-bis(2-aminoethylether)-N,N,N′,N′-tetraacetic acid (EGTA), pH 7.2), and then inserted into the Ag/AgCl2 electrode of the patch clamp head-stage.
2) SGLT1 or SGLT2 cells were seeded on a chamber which was coated with poly-L-lysine in advance, and then an external solution (150 mM NaCl, 10 mM HEPES, 1 mM CaCl2), 1 mM MgCl2, pH 7.4) was flowed to ensure that the cells were sufficiently submerged. A temperature control device was used to maintain the temperature of the chamber at 36.5±0.5° C.
3) Using a micromanipulator, the glass micropipette was attached to the cell membrane to create a giga-ohm seal, which was then ruptured to detach the cell membrane (whole-cell mode, 3 to 5 MΩ).
4) The cells were fixed at −60 mV (holding potential), and the current [I^total current (Na^+/Glucose current (pA))] was measured in a gap-free data acquisition mode.
5) The external solution was continuously flowed into the chamber containing the cells, and the current (I^total) was recorded for about 30 seconds to 1 minute (stabilization), and then the external solution with added glucose (Na^+/Glucose external) (150 mM NaCl, 10 mM HEPES, 1 mM CaCl2), 1 mM MgCl2, 100 mM glucose, pH 7.4) was flowed to record the glucose current (I^glucose). Then, the cells were exposed to the external solution with added glucose containing one concentration of the compound for two minutes, and the glucose current suppressed by the compound was recorded.
7) After confirming the recovery of the current, the solution was replaced with a sodium-free external solution (Na^+-free external) (150 mM Choline-Cl, 1 mM CaCl2), 1 mM MgCl2, pH 7.4) and the Na^+ current was recorded. After the current was stabilized, the solution was replaced with the external solution to record the current in the resting state when the cells were not stimulated, thereby securing the reliability of the experimental system.
For statistical analysis of data, pCLAMP10.4 (Molecular Devices, LLC, San Jose, CA, USA) or Origin6.0 (OriginLab, Northampton, MA, USA) was used.
The test results were expressed as the mean±SD of the mean. Statistical significance was verified using the nonparametric Kruskal-Wallis test using Statistical Package for the Social Sciences (SPSS) for Windows (version 26.0, IBM Corp., Armonk, NY, USA). The significance level was set at p<0.05.

[1] = tested on: STZ-induced type 1 diabetic rats; test: Oral glucose tolerance test in type 1 diabetic rat model; assay type: in vivo; conditions: for Blood glucose level in OGTT: glucose 2 g/kg oral
Procedure: as §1

normal rats = test: Urinary glucose excretion (UGE) after intravenous administration; assay type: in vivo, rat; conditions: 1 mg/kg intravenous, 6-72 hours
Procedure: Enavogliflozin, M1, or M2 was intravenously administered once to normal rats, and antidiabetic efficacy was evaluated.
To perform the oral glucose tolerance test (OGTT) and examine urinary glucose excretion (UGE), enavogliflozin, M1, or M2 was administered intravenously to male 8-week-old normal rats at a dose of 1 mg/kg, and then a glucose solution (2 g/kg) was administered to load blood sugar. The blood sugar level was measured before glucose solution administration and at 5, 10, 15, 20, 30, 40, 60, 90, and 120 minutes after the administration to evaluate oral glucose tolerance. In addition, the UGE was evaluated by measuring the amount of glucose excreted in the urine 6, 24, 48, and 72 hours after the administration of the glucose solution.

[2] = tested on: STZ-induced type 1 diabetic rats; test: Non-fasting blood glucose in type 1 diabetic rat model; assay type: in vivo; conditions: 1 mg/kg single intravenous dose
Procedure: as §1

[3] = Half-life of M2 (rapid dissipation); conditions: in vivo

OC[C@H]1O[C@@H](c2cc(Cc3ccc(C4CC4)cc3)c(Cl)c3c2CCO3)[C@H](O)[C@@H](O)[C@@H]1O [Enavogliflozin, (2S,3R,4R,5S,6R)-2-(7-chloro-6 (4-cyclopropylbenzyl)-2,3-dihydrobenzofuran-4-yl)-6-(hydroxymethyl)tetrahydro-2H-pyran-3,4,5-triol]
Change in IL-6 level (interleukin-6 (IL-6)): slight decrease | Dissociation from SGLT2, times slower than dapagliflozin (SGLT2; ratio of T1/2,off): about 2.8 times | Binding affinity T1/2, on (s), SGLT2 (SGLT2; treatment concentration 100 μM): 29.5 ± 5.5 s | Dissociation degree T1/2, off (s), SGLT2 (SGLT2; treatment concentration 100 μM): 745.5^+, # s | Dissociation degree T1/2, off (s), SGLT2 (SGLT2; treatment concentration 100 μM, listed as enavogliflozin): 745.5 s | Blood glucose level in OGTT ([1]; STZ rats, 1 mg/kg): lowering of the blood glucose level was observed

OC[C@H]1O[C@@H](c2cc(Cc3ccc(C4CC4)cc3)c(Cl)c3c2CC(O)O3)[C@H](O)[C@@H](O)[C@@H]1O (stereo partly drawn) [M1, (2S,3R,4R,5S,6R)-2-(7-chloro-6-(4-cyclopropylbenzyl)-2-hydroxy-2,3-dihydrobenzofuran-4-yl)-6-(hydroxymethyl)tetrahydro-2H-pyran-3,4,5-triol]
Change in IL-6 level (interleukin-6 (IL-6)): significant decrease in all dose groups | Dissociation rate from SGLT2, times slower than enavogliflozin (SGLT2; ratio of T1/2,off): 2 times | Binding affinity T1/2, on (s), SGLT2 (SGLT2; treatment concentration 200 μM): 52.5 ± 3.8*^, + s | Dissociation degree T1/2, off (s), SGLT2 (SGLT2; treatment concentration 200 μM): 369.9 s and 369.9 ± 56.5 ^ s | Urinary glucose excretion (UGE) (normal rats): UGE was observed from six hours after intravenous administration; also recorded: similar | AUC of blood glucose in OGTT ([1]; STZ rats, 1 mg/kg): best oral glucose tolerance improvement effect | Blood glucose level in OGTT ([1]; STZ rats, 1 mg/kg): fastest and strongest blood glucose lowering effect | Dose dependence of glucose tolerance in OGTT ([1]; STZ rats, 0.01, 0.1, 1 mg/kg): dose-dependent improvement in glucose tolerance | Non-fasting blood sugar level [2]: lowest blood sugar level at 48 hours after administration

OC[C@H]1O[C@@H](c2cc(Cc3ccc(C4(O)CC4)cc3)c(Cl)c3c2CCO3)[C@H](O)[C@@H](O)[C@@H]1O [M2, (2S,3R,4R,5S,6R)-2-(7-chloro-6-(4-(1-hydroxycyclopropyl)benzyl)-2,3-dihydrobenzofuran-4-yl)-6-(hydroxymethyl)tetrahydro-2H-pyran-3,4,5-triol]
Dissociation rate from SGLT2, times slower than enavogliflozin (SGLT2; ratio of T1/2,off): 1.38 times | Binding affinity T1/2, on (s), SGLT2 (SGLT2; treatment concentration 200 μM): 51.8 ± 10.5*^, + s | Dissociation degree T1/2, off (s), SGLT2 (SGLT2; treatment concentration 200 μM): 540.4 s and 540.4 ± 217.0^+, # s | Urinary glucose excretion (UGE) (normal rats): UGE was observed from six hours after intravenous administration; also recorded: less glucose was excreted than enavogliflozin and M1 for up to 24 hours | half-life [3]: 48 min
